Experimental data taken from ChEMBL document CHEMBL1156313, “Structure-activity relationship of novel DAPK inhibitors identified by structure-based virtual screening” (Bioorg Med Chem, 2010).
Values belong to the compound of their own block, whether it stands above or below them.

Key:
[1] = target: T1, Death-associated protein kinase 3 (Homo sapiens, UniProt O43293); test: Inhibition of human recombinant DAPK3 at 10 uM
[2] = target: T1, Death-associated protein kinase 3; test: Inhibition of human recombinant DAPK3 at 1 uM
[3] = target: T1, Death-associated protein kinase 3; test: Inhibition of human recombinant DAPK3
[4] = target: Death-associated protein kinase 1 (Homo sapiens) (UniProt P53355); test: Inhibition of DAPK1 at 10 uM
[5] = target: MAP kinase-activated protein kinase 2 (Homo sapiens) (UniProt P49137); test: Inhibition of MAPKAPK2 at 10 uM
Chain of MAP kinase-activated protein kinase 2 (Homo sapiens) (P49137 whole entry, looked up): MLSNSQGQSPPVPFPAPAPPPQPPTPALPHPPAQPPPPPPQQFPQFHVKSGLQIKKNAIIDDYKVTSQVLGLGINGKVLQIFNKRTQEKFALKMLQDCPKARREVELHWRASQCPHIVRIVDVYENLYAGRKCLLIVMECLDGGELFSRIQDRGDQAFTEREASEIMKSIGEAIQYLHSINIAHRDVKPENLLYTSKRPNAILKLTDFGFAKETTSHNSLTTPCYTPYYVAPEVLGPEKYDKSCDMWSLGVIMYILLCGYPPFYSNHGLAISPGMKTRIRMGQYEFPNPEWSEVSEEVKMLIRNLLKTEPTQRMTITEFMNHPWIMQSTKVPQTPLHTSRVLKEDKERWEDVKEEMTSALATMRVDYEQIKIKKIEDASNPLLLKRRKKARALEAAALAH

[6] = target: T2, Aurora kinase A (Homo sapiens) (UniProt O14965); test: Inhibition of Aurora A at 10 uM
T2 sequence (whole entry): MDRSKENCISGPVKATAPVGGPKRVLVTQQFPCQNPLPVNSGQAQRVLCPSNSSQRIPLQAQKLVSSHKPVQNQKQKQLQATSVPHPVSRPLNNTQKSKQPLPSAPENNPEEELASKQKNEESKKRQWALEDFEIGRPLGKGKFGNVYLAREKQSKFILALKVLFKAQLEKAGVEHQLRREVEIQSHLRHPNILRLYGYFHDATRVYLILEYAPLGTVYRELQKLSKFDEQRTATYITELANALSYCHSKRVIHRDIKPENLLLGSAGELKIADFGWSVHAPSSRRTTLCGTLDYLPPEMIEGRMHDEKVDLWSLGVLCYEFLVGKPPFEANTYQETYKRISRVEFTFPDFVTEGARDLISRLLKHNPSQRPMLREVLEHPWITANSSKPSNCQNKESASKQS

[7] = target: T3, Protein kinase C zeta type (Homo sapiens) (UniProt Q05513); test: Inhibition of PKCzeta at 10 uM
T3 sequence (whole entry): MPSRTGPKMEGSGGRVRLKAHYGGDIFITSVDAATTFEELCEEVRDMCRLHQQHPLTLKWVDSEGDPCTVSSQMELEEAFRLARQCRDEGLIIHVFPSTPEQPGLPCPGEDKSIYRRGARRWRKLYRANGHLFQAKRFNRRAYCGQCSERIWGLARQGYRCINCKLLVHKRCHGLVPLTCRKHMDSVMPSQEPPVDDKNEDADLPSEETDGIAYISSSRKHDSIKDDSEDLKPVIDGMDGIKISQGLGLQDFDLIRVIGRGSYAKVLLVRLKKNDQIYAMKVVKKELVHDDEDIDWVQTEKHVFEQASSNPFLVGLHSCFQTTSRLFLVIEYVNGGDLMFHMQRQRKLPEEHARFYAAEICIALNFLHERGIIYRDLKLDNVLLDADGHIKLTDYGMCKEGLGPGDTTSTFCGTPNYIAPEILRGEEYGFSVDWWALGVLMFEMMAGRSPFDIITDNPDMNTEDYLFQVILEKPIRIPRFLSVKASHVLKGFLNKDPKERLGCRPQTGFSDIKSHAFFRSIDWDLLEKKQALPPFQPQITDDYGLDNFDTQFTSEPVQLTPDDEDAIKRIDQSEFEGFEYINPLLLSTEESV

[8] = target: Ribosomal protein S6 kinase alpha-1 (Homo sapiens) (UniProt Q15418); test: Inhibition of RSK1 at 10 uM
[9] = target: MAP kinase-activated protein kinase 5 (Homo sapiens) (UniProt Q8IW41); test: Inhibition of PRAK at 10 uM
[10] = target: Mitogen-activated protein kinase 3 (Homo sapiens) (UniProt P27361); test: Inhibition of ERK1 at 10 uM
[11] = target: T4, Serine/threonine-protein kinase D2 (Homo sapiens) (UniProt Q9BZL6); test: Inhibition of PKD2 at 10 uM
T4 sequence (whole entry): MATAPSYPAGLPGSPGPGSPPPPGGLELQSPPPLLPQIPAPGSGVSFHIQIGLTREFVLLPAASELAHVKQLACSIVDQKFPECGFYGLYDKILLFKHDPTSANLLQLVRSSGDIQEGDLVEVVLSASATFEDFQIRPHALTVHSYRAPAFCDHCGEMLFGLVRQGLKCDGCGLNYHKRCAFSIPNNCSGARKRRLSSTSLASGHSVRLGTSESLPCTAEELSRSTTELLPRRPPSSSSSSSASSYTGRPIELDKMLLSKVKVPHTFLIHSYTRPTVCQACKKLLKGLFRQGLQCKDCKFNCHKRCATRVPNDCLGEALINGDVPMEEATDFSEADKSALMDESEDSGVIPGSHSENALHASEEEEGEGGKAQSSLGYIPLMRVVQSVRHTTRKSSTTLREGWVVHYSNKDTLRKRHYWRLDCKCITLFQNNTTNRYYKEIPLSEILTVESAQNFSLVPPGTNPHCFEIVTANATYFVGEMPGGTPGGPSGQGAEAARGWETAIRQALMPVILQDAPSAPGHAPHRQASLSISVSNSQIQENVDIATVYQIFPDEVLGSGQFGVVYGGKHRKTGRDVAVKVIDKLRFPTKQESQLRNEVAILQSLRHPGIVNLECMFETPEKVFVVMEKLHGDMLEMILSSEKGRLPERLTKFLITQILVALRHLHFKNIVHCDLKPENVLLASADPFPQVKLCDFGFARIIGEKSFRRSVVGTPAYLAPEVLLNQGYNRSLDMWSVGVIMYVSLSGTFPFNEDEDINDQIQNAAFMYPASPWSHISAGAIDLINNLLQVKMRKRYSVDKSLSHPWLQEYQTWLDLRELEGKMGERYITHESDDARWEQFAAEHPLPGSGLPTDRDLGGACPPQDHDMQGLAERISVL

[12] = target: T5, Serine/threonine-protein kinase Chk1 (Homo sapiens) (UniProt O14757); test: Inhibition of CHK1 at 10 uM
T5 sequence (whole entry): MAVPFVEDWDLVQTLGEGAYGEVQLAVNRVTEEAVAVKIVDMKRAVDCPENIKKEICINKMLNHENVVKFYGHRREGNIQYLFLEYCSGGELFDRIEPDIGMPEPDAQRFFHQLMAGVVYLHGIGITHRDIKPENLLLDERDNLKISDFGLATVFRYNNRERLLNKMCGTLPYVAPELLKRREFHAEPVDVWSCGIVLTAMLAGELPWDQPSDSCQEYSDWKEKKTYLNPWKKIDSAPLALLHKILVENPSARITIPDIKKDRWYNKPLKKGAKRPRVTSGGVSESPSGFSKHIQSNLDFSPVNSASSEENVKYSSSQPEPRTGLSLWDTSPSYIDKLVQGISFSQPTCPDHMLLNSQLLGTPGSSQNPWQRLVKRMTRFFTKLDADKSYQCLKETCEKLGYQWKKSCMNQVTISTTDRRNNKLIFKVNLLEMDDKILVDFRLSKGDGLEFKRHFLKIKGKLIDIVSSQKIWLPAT

[13] = target: Tyrosine-protein kinase ABL1 (Homo sapiens) (UniProt P00519); test: Inhibition of ABL at 10 uM
Chain of Tyrosine-protein kinase ABL1 (Homo sapiens) (P00519 whole entry): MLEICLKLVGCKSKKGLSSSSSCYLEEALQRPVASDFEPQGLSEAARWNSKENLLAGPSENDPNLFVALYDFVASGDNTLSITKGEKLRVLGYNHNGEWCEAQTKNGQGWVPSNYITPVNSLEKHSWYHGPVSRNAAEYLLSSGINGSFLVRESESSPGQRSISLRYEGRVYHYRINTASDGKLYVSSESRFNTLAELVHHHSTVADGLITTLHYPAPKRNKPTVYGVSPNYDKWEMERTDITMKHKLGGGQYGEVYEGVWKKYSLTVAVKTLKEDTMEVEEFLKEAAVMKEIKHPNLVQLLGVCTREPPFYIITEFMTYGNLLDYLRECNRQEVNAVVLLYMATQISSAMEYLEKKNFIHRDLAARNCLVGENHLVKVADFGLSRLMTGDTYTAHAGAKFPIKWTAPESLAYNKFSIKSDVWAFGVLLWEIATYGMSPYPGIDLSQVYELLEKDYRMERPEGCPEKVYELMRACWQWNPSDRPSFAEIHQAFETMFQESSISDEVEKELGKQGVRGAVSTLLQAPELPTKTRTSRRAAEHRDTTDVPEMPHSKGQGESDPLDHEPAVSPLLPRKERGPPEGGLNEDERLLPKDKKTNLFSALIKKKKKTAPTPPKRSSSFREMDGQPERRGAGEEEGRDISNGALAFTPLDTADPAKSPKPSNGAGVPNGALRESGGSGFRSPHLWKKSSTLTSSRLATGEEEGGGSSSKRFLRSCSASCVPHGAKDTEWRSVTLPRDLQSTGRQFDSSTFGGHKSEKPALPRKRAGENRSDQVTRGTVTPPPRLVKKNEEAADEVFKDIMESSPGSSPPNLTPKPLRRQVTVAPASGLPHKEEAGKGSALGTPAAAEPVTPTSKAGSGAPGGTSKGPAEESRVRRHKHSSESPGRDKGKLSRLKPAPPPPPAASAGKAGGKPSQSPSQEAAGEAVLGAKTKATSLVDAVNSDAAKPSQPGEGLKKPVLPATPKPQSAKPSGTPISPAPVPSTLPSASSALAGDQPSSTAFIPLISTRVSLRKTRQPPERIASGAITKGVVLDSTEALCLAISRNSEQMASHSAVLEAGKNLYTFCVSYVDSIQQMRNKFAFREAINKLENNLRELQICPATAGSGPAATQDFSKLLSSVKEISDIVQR

[14] = target: Tyrosine-protein kinase Fyn (Homo sapiens) (UniProt P06241); test: Inhibition of FYN at 10 uM
[15] = target: Tyrosine-protein kinase Lyn (Homo sapiens) (UniProt P07948); test: Inhibition of LYN at 10 uM
Chain of Tyrosine-protein kinase Lyn (Homo sapiens) (P07948 2-512 limits assumed): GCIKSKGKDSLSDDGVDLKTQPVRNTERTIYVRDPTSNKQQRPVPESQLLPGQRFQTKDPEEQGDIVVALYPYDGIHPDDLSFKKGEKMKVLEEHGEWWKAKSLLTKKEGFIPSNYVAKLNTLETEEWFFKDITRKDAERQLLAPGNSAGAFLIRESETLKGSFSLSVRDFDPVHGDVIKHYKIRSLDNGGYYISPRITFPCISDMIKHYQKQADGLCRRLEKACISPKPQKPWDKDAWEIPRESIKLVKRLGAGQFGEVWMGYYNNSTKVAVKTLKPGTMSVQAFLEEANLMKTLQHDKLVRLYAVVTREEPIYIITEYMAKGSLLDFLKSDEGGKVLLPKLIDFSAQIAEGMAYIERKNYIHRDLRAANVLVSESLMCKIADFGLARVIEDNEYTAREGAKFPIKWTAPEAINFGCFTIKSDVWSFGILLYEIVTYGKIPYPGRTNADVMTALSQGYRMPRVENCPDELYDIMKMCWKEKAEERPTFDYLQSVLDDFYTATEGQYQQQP

[16] = target: Serine/threonine-protein kinase Chk2 (Homo sapiens) (UniProt O96017); test: Inhibition of CHK2 at 10 uM
Chain of Serine/threonine-protein kinase Chk2 (Homo sapiens) (O96017 whole entry): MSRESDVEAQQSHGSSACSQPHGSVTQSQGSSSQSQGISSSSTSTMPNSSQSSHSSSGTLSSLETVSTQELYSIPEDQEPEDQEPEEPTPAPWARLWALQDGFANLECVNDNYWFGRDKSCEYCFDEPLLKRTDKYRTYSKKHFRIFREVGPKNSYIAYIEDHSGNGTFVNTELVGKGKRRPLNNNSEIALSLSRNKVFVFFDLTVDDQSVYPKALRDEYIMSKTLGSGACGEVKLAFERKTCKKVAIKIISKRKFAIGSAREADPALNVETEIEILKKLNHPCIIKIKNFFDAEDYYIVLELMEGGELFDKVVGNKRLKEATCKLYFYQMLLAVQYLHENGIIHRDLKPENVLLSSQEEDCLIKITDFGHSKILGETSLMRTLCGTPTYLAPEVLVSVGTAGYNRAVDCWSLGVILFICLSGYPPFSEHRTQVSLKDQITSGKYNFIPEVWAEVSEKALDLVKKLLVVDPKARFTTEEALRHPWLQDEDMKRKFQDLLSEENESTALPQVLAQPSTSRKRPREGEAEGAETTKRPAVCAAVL

[17] = target: Proto-oncogene tyrosine-protein kinase Src (Homo sapiens) (UniProt P12931); test: Inhibition of SRC at 10 uM
[18] = Inhibition of PKA at 10 uM
[19] = target: RAC-beta serine/threonine-protein kinase (Homo sapiens) (UniProt P31751); test: Inhibition of AKT2 at 10 uM
Chain of RAC-beta serine/threonine-protein kinase (Homo sapiens) (P31751 whole entry): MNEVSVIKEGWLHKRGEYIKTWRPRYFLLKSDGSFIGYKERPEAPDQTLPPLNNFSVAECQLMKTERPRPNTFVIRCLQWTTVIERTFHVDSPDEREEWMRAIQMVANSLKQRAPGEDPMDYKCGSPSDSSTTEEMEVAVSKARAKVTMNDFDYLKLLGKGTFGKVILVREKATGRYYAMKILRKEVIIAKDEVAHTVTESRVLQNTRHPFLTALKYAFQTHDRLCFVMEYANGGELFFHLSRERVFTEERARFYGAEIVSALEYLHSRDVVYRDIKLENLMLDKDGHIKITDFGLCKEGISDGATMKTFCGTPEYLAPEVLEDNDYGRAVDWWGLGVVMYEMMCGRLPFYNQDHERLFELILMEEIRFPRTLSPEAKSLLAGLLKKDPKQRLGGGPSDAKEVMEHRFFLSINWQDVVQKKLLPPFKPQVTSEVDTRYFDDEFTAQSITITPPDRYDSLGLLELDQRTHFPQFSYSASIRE

[20] = target: Insulin receptor (Homo sapiens) (UniProt P06213); test: Inhibition of INSR at 10 uM
Chain of Insulin receptor (Homo sapiens) (P06213 28-758 limits assumed): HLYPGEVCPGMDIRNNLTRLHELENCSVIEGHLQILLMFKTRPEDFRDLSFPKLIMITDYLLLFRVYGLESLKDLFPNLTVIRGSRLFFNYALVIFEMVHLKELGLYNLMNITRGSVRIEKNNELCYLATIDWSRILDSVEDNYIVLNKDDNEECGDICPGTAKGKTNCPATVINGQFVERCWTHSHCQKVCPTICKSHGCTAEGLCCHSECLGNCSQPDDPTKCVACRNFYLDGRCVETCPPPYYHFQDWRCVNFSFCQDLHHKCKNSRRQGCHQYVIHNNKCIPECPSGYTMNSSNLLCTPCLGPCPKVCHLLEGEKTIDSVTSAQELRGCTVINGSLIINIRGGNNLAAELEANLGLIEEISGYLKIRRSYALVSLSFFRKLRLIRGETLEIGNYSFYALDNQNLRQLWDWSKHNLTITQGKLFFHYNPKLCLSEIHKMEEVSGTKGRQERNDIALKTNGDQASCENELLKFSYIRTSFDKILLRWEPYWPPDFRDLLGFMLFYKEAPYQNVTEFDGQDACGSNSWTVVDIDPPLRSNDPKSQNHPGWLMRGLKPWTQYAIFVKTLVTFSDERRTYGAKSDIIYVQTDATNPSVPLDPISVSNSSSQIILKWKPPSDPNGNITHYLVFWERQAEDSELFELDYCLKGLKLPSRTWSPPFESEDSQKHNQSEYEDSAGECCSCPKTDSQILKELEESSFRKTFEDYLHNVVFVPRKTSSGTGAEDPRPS
Chain of Insulin receptor (Homo sapiens) (P06213 763-1382 limits assumed): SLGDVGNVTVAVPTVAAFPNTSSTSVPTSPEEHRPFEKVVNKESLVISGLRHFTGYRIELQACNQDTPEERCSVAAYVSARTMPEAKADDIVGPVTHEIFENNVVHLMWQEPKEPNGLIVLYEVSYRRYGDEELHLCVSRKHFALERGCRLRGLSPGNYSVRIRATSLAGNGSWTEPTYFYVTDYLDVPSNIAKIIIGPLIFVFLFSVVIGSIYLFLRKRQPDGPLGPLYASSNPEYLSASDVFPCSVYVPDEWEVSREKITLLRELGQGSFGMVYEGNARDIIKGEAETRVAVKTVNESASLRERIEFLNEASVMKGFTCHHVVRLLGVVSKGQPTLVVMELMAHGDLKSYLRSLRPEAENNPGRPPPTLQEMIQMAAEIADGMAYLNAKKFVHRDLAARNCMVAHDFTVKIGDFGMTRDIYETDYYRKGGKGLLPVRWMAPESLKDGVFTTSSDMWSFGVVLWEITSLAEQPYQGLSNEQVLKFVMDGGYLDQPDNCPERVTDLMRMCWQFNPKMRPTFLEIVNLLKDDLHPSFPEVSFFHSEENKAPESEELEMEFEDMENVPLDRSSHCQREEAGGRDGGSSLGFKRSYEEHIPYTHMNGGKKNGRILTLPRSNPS

[21] = target: Mitogen-activated protein kinase 14 (Homo sapiens) (UniProt Q16539); test: Inhibition of P38alpha at 10 uM
[22] = target: RAC-alpha serine/threonine-protein kinase (Homo sapiens) (UniProt P31749); test: Inhibition of AKT1 at 10 uM
Chain of RAC-alpha serine/threonine-protein kinase (Homo sapiens) (P31749 whole entry): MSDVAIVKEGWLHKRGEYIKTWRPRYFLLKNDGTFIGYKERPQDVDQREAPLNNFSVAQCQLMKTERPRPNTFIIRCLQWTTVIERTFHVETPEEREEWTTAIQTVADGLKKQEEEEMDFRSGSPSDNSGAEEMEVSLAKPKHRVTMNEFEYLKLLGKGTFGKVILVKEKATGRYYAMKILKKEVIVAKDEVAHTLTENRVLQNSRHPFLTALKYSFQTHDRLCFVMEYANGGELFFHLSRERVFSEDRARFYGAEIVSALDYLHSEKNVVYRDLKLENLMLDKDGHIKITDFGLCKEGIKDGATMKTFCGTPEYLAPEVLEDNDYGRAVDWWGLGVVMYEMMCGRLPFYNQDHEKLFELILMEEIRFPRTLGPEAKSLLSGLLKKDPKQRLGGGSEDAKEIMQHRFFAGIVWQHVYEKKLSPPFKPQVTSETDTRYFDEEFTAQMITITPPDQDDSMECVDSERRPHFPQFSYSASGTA

[23] = target: Tyrosine-protein kinase Lck (Homo sapiens) (UniProt P06239); test: Inhibition of LCK at 10 uM
[24] = target: Glycogen synthase kinase-3 beta (Homo sapiens) (UniProt P49841); test: Inhibition of GSK3-beta at 10 uM
[25] = target: Mitogen-activated protein kinase 1 (Homo sapiens) (UniProt P28482); test: Inhibition of ERK2 at 10 uM
[26] = target: Hepatocyte growth factor receptor (Homo sapiens) (UniProt P08581); test: Inhibition of MET at 10 uM

Compound: Cc1ccc(C2=N/C(=C\c3cccnc3)C(=O)O2)cc1[N+](=O)[O-]
inhibition [1]: 90%
inhibition [2]: 72%
IC50 [3]: 534 nM

Compound: O=C1OC(c2ccccc2)=N/C1=C\c1ccncc1
inhibition [1]: 1%
inhibition [2]: 0%

Compound: COc1ccc(C2=N/C(=C\c3cccnc3)C(=O)O2)cc1Br
inhibition [1]: 32%
inhibition [2]: 32%

inhibition [5]: 2%
inhibition [6]: 16%
inhibition [7]: 5%
inhibition [8]: 13%
inhibition [9]: 10%
inhibition [10]: 18%
inhibition [11]: 11%
inhibition [12]: 5%
inhibition [13]: 7%
inhibition [14]: 9%
inhibition [15]: 0%
inhibition [16]: 19%
inhibition [17]: 2%
inhibition [18]: 19%
inhibition [19]: 28%
inhibition [20]: 0%
inhibition [21]: 5%
inhibition [22]: 12%
Compound: Cc1cc(C2=N/C(=C\c3cccnc3)C(=O)O2)ccc1Br
inhibition [1]: 94%
inhibition [2]: 88%
IC50 [3]: 278 nM
inhibition [4]: 82%

Compound: O=C1OC(c2ccc([N+](=O)[O-])cc2)=N/C1=C\c1ccncc1
inhibition [1]: 2%
inhibition [2]: 0%

Compound: O=C1OC(c2cccc(Br)c2)=N/C1=C\c1ccncc1
inhibition [1]: 0%
inhibition [2]: 1%

Compound: O=C1OC(c2ccccc2)=N/C1=C\c1ccccc1
inhibition [1]: 4%

Compound: O=C1OC(C23CC4CC(CC(C4)C2)C3)=N/C1=C\c1cccnc1
inhibition [1]: 45%

inhibition [6]: 8%
inhibition [7]: 8%
inhibition [10]: 25%
inhibition [11]: 3%
inhibition [12]: 7%
inhibition [14]: 2%
inhibition [15]: 2%
inhibition [16]: 7%
inhibition [23]: 3%
inhibition [17]: 6%
inhibition [24]: 0%
inhibition [25]: 34%
inhibition [18]: 2%
inhibition [19]: 18%
inhibition [20]: 7%
inhibition [21]: 8%
inhibition [22]: 12%
Compound: O=C1OC(c2ccc(F)c(F)c2)=N/C1=C\c1cccnc1
inhibition [1]: 98%
inhibition [2]: 89%
IC50 [3]: 346 nM
inhibition [4]: 97%

Compound: O=C1OC(c2cccc(Cl)c2)=N/C1=C\c1cccnc1
inhibition [1]: 97%
inhibition [2]: 85%
IC50 [3]: 360 nM

Compound: O=C1OC(c2cccc(Br)c2)=N/C1=C\c1cccnc1
inhibition [1]: 100%
inhibition [2]: 100%
IC50 [3]: 148 nM

Compound: O=C1OC(c2ccc([N+](=O)[O-])cc2)=N/C1=C\c1cccnc1
inhibition [1]: 94%
inhibition [2]: 90%
IC50 [3]: 291 nM

Compound: O=C1OC(c2ccc(Cl)c([N+](=O)[O-])c2)=N/C1=C\c1cccnc1
inhibition [1]: 100%
inhibition [2]: 100%
IC50 [3]: 278 nM

Compound: O=C1OC(c2ccc(Cl)cc2Cl)=N/C1=C\c1cccnc1
inhibition [1]: 78%
inhibition [2]: 42%

Compound: COc1cc(C2=N/C(=C\c3cccnc3)C(=O)O2)cc(OC)c1OC
inhibition [1]: 33%
inhibition [2]: 26%

Compound: O=C1OC(c2ccc(Cl)c([N+](=O)[O-])c2)=N/C1=C\c1ccncc1
inhibition [1]: 10%
inhibition [2]: 0%

inhibition [5]: 3%
inhibition [6]: 3%
inhibition [7]: 2%
inhibition [8]: 15%
inhibition [10]: 0%
inhibition [11]: 1%
inhibition [12]: 5%
inhibition [13]: 1%
inhibition [17]: 5%
inhibition [19]: 6%
inhibition [20]: 3%
inhibition [21]: 1%
inhibition [22]: 5%
Compound: Cc1cccc(C2=N/C(=C\c3cccnc3)C(=O)O2)c1
inhibition [1]: 96%
inhibition [2]: 68%
IC50 [3]: 714 nM
inhibition [4]: 98%

Compound: COc1ccc(C2=N/C(=C\c3cccnc3)C(=O)O2)c(Br)c1
inhibition [1]: 92%
inhibition [2]: 100%
IC50 [3]: 157 nM

inhibition [5]: 5%
inhibition [6]: 6%
inhibition [7]: 3%
inhibition [8]: 5%
inhibition [10]: 16%
inhibition [11]: 7%
inhibition [12]: 3%
inhibition [13]: 16%
inhibition [14]: 6%
inhibition [15]: 10%
inhibition [16]: 4%
inhibition [26]: 3%
inhibition [23]: 9%
inhibition [17]: 13%
inhibition [24]: 9%
inhibition [25]: 7%
inhibition [19]: 13%
inhibition [20]: 7%
inhibition [21]: 3%
inhibition [22]: 12%
Compound: O=C1OC(c2ccccc2)=N/C1=C\c1cccnc1
IC50 [3]: 583 nM
inhibition [4]: 98%

Compound: COc1cccc(C2=N/C(=C\c3cccnc3)C(=O)O2)c1
inhibition [1]: 100%
inhibition [2]: 99%
IC50 [3]: 395 nM

Compound: O=C1OC(c2ccc(Cl)cc2)=C/C1=C\c1cccnc1
inhibition [1]: 3%

Compound: COc1ccc(C2=N/C(=C\c3cccnc3)C(=O)O2)cc1OC
inhibition [1]: 36%
inhibition [2]: 14%

Compound: O=C1N=C(N2CCCCC2)S/C1=C\c1cccnc1
inhibition [1]: 29%

Compound: O=C1OC(c2cccc([N+](=O)[O-])c2)=N/C1=C\c1ccncc1
inhibition [1]: 0%
inhibition [2]: 0%

Compound: O=C1OC(c2cc(I)ccc2Cl)=N/C1=C\c1ccncc1
inhibition [1]: 97%
inhibition [2]: 83%
IC50 [3]: 227 nM
